For six compounds, IC50 and Kd results are on record in ChEMBL document CHEMBL1126505, “Syntheses of Cyclopentane, Cyclohexene and Olefin Oxazoles as Thromboxane A2/Endoperoxide Receptor Antagonists” (Bioorg Med Chem Lett, 1993).

For one test, the species on record is Homo sapiens. In words: Tested for the ability to inhibit arachidonic acid induced platelet aggregation in human platelet rich plasma. Particulars: read-out: I50. Type of test: functional.
The target of a further test is T1, Thromboxane A2 receptor (Homo sapiens, UniProt P21731).
T1 sequence (P21731 whole entry): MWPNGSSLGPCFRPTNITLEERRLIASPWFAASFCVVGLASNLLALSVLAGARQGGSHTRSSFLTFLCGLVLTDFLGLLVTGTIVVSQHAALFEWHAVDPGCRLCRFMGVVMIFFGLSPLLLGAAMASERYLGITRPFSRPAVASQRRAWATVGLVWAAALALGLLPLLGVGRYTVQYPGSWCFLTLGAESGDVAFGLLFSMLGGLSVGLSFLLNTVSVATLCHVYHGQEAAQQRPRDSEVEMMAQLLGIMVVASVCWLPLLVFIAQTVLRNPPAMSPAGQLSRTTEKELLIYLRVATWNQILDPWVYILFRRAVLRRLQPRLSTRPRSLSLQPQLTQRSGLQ
Nature of the test: Binding affinity was determined for Thromboxane A2 receptor in human platelet membrane using [3H]SQ-29,548 radioligand. Format: cell membranes.

The term Kd denotes a measure of binding affinity in units of concentration. The low end stands for tighter binding, the high end for weaker binding.

Consider `O=C(O)CCc1ccccc1C[C@@H]1CCC[C@@H]1c1nc(C(=O)NCCCCC2CCCCC2)co1`, for which the IC50 in the test listed under Homo sapiens amounted to 107 nM. Also, binding on Thromboxane A2 receptor was characterised by a dissociation constant (Kd) of 23.8 nM.
The corresponding values for `O=C(O)CCc1ccccc1CC1=C(c2nc(C(=O)NCCc3ccc(Cl)cc3)co2)CCCC1` are 194 nM and 63.5 nM.
The corresponding values for `O=C(O)CCc1ccccc1C[C@H]1CCC[C@@H]1c1nc(C(=O)NCc2ccc(Cl)cc2)co1` are 5160 nM and 3.3 nM.
The corresponding values for `O=C(O)CCc1ccccc1C[C@@H]1CCC[C@H]1c1nc(C(=O)NCc2ccc(Cl)cc2)co1` are 338 nM and 0.5 nM.
On to `C/C(Cc1ccccc1CCC(=O)O)=C(\C)c1nc(C(=O)NCCc2ccc(Cl)cc2)co1`, for which the IC50 in the test listed under Homo sapiens was 235 nM. In addition, binding at Thromboxane A2 receptor was characterised by a dissociation constant (Kd) of 37.3 nM.
The corresponding values for `O=C(O)CCc1ccccc1CC1CCC[C@H]1c1nc(C(=O)NCCCCC2CCCCC2)co1` (single isomer, unassigned; (-)) are 15 nM and 4.3 nM.
